Experimental data published in patent US20150315218A1, “SALTS OF PRODRUGS OF PIPERAZINE AND SUBSTITUTED PIPERIDINE ANTIVIRAL AGENTS” (Bristol-Myers Squibb Company, priority 2004, published 2015).
Where two headings read alike, the source gives them in different places.

Columns and labels:
[1] = Stability (hydrolysis) of prodrug in fresh serum (rat); settings: Rat Serum
[2] = Single-dose oral toxicokinetic study of prodrugs in rats; type: in vivo, rat; settings: CD, rat, plasma; for concentration at 24 h / half-life / Cmax: analyte = label; for concentration at 24 h: read-out: C24 h; for half-life: read-out: T½ (converted); for AUC: read-out: AUC
Protocol: A 1-day oral toxicokinetic study in rats was conducted using the prodrug Iab (monolysine salt). Iab was administered at dosages of 16, 72, and 267 mg/kg (free acid) by oral gavage to three male rats/group using water as the vehicle (solution formulation). The dosages of prodrug free acid correspond to IVa (parent) molar equivalent dosages of 13, 57, and 211 mg/kg, respectively. The endpoint evaluated was plasma toxicokinetics of Iab and IVa in the individual rats.
A 1-day oral toxicokinetic study in rats was conducted by using the prodrug Ibb (monolysine salt). Ibb was administered at dosages of 19, 64, and 236 mg/kg (free acid) by oral gavage to three male rats/group using water as the vehicle (solution formulation).
A 1-day oral toxicokinetic study in rats was conducted using the prodrug Icb (disodium salt). Icb was administered at dosages of 5, 25, and 200 mg/kg (free acid) by oral gavage to three male rats/group using water as the vehicle (solution formulation).

[3] = Single-dose toxicokinetic and tolerability study of prodrugs in dogs; type: in vivo, dog; settings: for concentration at 24 h: read-out: C24h
Protocol: A multi-phase study was conducted to evaluate the tolerability of the prodrug, Iab (monolysine salt) at dosages of 24, 90, or 240 mg/kg (free acid, molar equivalent to 19, 71, or 190 mg/kg of parent IVa, respectively) and the toxicokinetics of lab and IVa (4). Iab was administered to two female dogs/group once daily either as an aqueous solution (24 or 90 mg/kg) or dry-filled capsules (24, 90 [once and twice daily] or 240 mg/kg). The endpoints were: clinical signs, body weight, food consumption, and plasma toxicokinetics of lab and IVa. In all cases, a 1-week washout period was used between doses for all phases of the study. […]
On day 1, Icb was administered to one dog/sex/group once daily in dry-filled capsules at the above dosages. A 1-week washout period was used between doses in the study. On day 8, Icb was administered to one dog/sex/group once daily as an aqueous solution at 25 mg/kg or twice daily in dry-filled capsules at 46 or 125 mg/kg BID.

[4] = IVa, Iab 24 mg/kg Dry-filled capsule, Dogs #4201, #4202
[5] = IVa, Iab 24 mg/kg Solution, Dogs #1201, #1202
[6] = IVa, Iab 90 mg/kg Solution, Dogs #3201, #3202
[7] = Table 14: 90 mg/kg, Dogs #1201, #1202, 90 mg/kg
[8] = Table 14: 240 mg/kg, Dogs #2201, #2202, 240 mg/kg

## COc1ncc(OC)c2c(C(=O)C(=O)N3CCN(C(=O)c4ccccc4)CC3)c[nH]c12 [IVa, N-(benzoyl)-N′-[(4,7-dimethoxy-6-azaindol-3-yl)-oxoacetyl]piperazine]
[1]; 37°C, 0 min
  Iab / IVa Formed: 0.25 µM
[1]; 15 min
  Iab / IVa Formed: 1.1 µM
[1]; 30 min
  Iab / IVa Formed: 1.8 µM
[1]; 45 min
  Iab / IVa Formed: 2.8 µM
[1]; 60 min
  Iab / IVa Formed: 3.7 µM
[1]; 90 min
  Iab / IVa Formed: 5.4 µM
[2]; male rats, Iab 16 mg/kg PO
  concentration at 24 h: 0.09 µM
  half-life: 3.2 h
[2]; male rats, Iab 72 mg/kg PO
  concentration at 24 h: 0.027 µM
  half-life: 2.3 h
[2]; male rats, Iab 267 mg/kg PO, AUC from zero to ∞
  AUC: 1160 µM·h
[2]; male rats, Iab 267 mg/kg PO
  concentration at 24 h: 1.9 µM
  half-life: 3.4 h
[2]; male rats, single oral dose Iab 16 mg/kg (13 mg/kg IVa molar equiv.), water
  Cmax: 26 µM
[2]; male rats, single oral dose Iab 72 mg/kg (57 IVa equiv.)
  Cmax: 104 µM
[2]; male rats, single oral dose Iab 267 mg/kg (211 IVa equiv.)
  Cmax: 214 µM
[2]; male, po, 16 mg/kg
  AUC: 67 µM·h
[2]; male, po, 72 mg/kg
  AUC: 261 µM·h
[3]; IVa in female dogs, Iab 24 mg/kg (19 IVa equiv.), Dry-filled capsule, Dogs #4201, #4202
  Cmax: 85.6 µM
[3]; IVa in female dogs, Iab 24 mg/kg (19 IVa equiv.), Solution, Dogs #1201, #1202
  Cmax: 66.5 µM
[3]; IVa in female dogs, Iab 90 mg/kg (71 IVa equiv.), Solution, Dogs #3201, #3202
  Cmax: 125 µM
[3]; [4]
  AUC0-∞: 514 µM·h
  concentration at 24 h: 0.87 µM
[3]; [5]
  AUC0-∞: 330 µM·h
  T½: 3.1 h
  concentration at 24 h: 0.33 µM
[3]; [6]
  AUC0-∞: 838 µM·h
  T½: 3.9 h
  concentration at 24 h: 2.2 µM
[3]; [7]
  AUC0-∞: 960 µM·h
  T½: 2.9 h
[3]; Table 14: 240 mg/kg (190 IVa equiv.), Formulation Solution, Dogs #2201, #2202, 240 mg/kg
  Cmax: 189 µM
[3]; [8]
  AUC0-∞: 1584 µM·h
  T½: 4.5 h
[3]; Table 14: 180 (90 BID) mg/kg (142 IVa equiv.), Dry-filled capsule, Dogs #3201, #3202
  Cmax: 248 µM
[3]; Table 14: 180 (90 BID) mg/kg, Dogs #3201 (AUC from zero to 24 h), #3202
  AUC0-∞: 2485 µM·h
[3]; Table 14: 180 (90 BID) mg/kg, Dogs #3201, #3202
  concentration at 24 h: 50 µM
[3]; Table 14: IVa in female dogs, 90 mg/kg (71 IVa equiv.), Formulation Solution, Dogs #1201, #1202, 90 mg/kg
  Cmax: 152 µM
[3]; dogs, once daily (QD) dosing of prodrug
  time post-dose at which mean Cmax of parent was achieved: 1 to 2 h
